Assay results reported in patent US7713923B2, “Self-assembling peptides incorporating modifications and methods of use thereof” (Massachusetts Institute of Technology, priority 2003, dated 2010).

Legend:
[1] = tested on: human aortic endothelial cells (HAEC); assay: Western blot of laminin 1 and collagen IV production by HAEC; format: cell-based; details: compared to conventional 2D tissue culture plates
Text: Western blots. Harvested HAEC for each culture condition were counted and lysed with sample buffer (NP0007, Invitrogen, CA) containing 2% (v/v) β-mercaptoethanol and a cocktail of protease inhibitors (1836153, Complete Mini, Roche, Penzberg, Germany) to avoid proteolysis. Cell lysates were run on a 10% PAGE system in MOPS buffer (NP0301, NP0001 Invitrogen, CA), and proteins were transferred to PVDF membranes (LC2002, Invitrogen, CA) to perform western blots. Briefly, membranes were blocked with 2% BSA and 0.1% Triton-X 100 in PBS. Two primary antibodies were used: mouse monoclonal IgG, anti human laminin γ1 [laminin B2 chain] (1 μg/ml, B1920, Chemicon, CA) and mouse monoclonal IgG, anti human collagen IV [7S domain] (2 μg/ml, MAB3326, Chemicon, CA). A secondary antibody, goat polyclonal anti-mouse IgG-HRP conjugated (1:5000 dilution, sc-2302, Santa Cruz Biotechnology, CA) was used for detection by chemiluminescence (sc-2048, Santa Cruz Biotechnology, CA). Protein bands were visualized by exposure to an X-ray film (Biomax Film, Kodak, N.Y.).

[2] = tested on: human aortic endothelial cells (HAEC); assay: HAEC attachment assay on peptide scaffolds; format: cell-based; details: after one hour; modified peptides as 9:1 blends with RAD16-I
Description: Meanwhile, human aortic endothelial cells (HAEC) (CC-2535, Cambrex, MD) that had been maintained under standard culture conditions (passage 5-6) were harvested at 80% confluence using trypsin and loaded on top of the preformed peptide scaffolds at a cell density of 8×10^4 cells/cm^2 and cultured in the cell culture incubator at 37° C. with 5% CO2. Cell attachment assays were performed one hour after the initial cell loading. To perform the assays, the covering media was removed, and unattached cells were counted on a hematocytometer. Cell counting was performed by mechanically disrupting the scaffold containing cells by pipetting up and down and then counting cells on a hematocytometer after performing Trypan blue (T 9906, Sigma, MO) exclusion assay staining to assess cell viability. In some experiments, for comparison, EC were cultured on inserts coated with Matrigel or collagen (1.5 mg/ml, i.e. 0.15%) according to standard protocols.

[3] = Rheometry (dynamic frequency and time sweep); format: physicochemical
Description: Rheometry. Rheological assays were performed on a 50 mm parallel plate ARES strain controlled rheometer (Rheometric Scientific, NJ). Samples were dissolved in deionized water at a final concentration of 2.9 mM and sonicated for one hour the day prior to the analysis. A volume of 1 ml was loaded on the lower plate, and the upper plate was set to a gap size between 0.4-0.45 mm. Dynamic frequency sweep tests were performed in a range of frequencies from 100 to 0.1 radis. After the test, PBS was added around the lower plate in order to promote gelation. The peptide was allowed to gel for 10 min at room temperature before the test was performed once again. After a dynamic frequency sweep test, the behavior of samples over time was tested. A dynamic time sweep test was performed at 10 rad/s for 5 min.
Rheology. A dynamic strain sweep was first performed on RAD16-I to set the linear viscoelastic region of the test and to select a fixed strain for the dynamic frequency sweep tests (FIG. 19). This linear viscoelastic range is defined by constant moduli, G′ and G″. It is important to select a strain within this range to obtain reliable results (Schramm, 1994). The strain selected was 0.01 (dimensionless) and was applied in all assays.

increase of both moduli (G′, G″) upon addition of salts ([3]; PBS added, 10 minutes gelation): ≈ 10 fold
storage modulus G′ ([3]; after addition of PBS, dynamic frequency sweep, strain 0.01, 2.9 mM peptide): 2.5×10^3 Pa
SMILES: CC(=O)N[C@@H](CCCNC(=N)N)C(=O)N[C@@H](C)C(=O)N[C@@H](CC(=O)O)C(=O)N[C@@H](C)C(=O)N[C@@H](CCCNC(=N)N)C(=O)N[C@@H](C)C(=O)N[C@@H](CC(=O)O)C(=O)N[C@@H](C)C(=O)N[C@@H](CCCNC(=N)N)C(=O)N[C@@H](C)C(=O)N[C@@H](CC(=O)O)C(=O)N[C@@H](C)C(=O)N[C@@H](CCCNC(=N)N)C(=O)N[C@@H](C)C(=O)N[C@@H](CC(=O)O)C(=O)N[C@@H](C)C(N)=O [RAD16-I, AcN-(RADA)4-CONH2]
laminin 1 and collagen IV deposition by HAEC [1]: significant enhancement of laminin 1 and collagen IV deposition
HAEC attachment to the surface [2]: ~100%
